Results published in patent publication US5969017A, “Methods of treating or preventing cardiac arrhythmia” (Merck & Co., Inc., priority 1997, dated 1999).

Test system: other cardiac K+ channels
Assay: Block of the other cardiac K+ channels (IK1, IKr and IKs, summary)
Format: cell-based, guinea pig
Conditions: summary of Table 2
Method: D. Measurement of IKs IKr and IK1 in Guinea Pig Ventricular Myocytes.
Guinea pig ventricular myocytes were isolated using a modification of the procedure described by Mitra et al., Am. J. Physiol. 249:H1056-60 (1985). Excised hearts were perfused through the aorta (retrograde fashion) at a rate of 10 ml/min with oxygenated, warmed (37° C.) solutions described below. The heart was initially perfused for 7 minutes with a Tyrode's solution containing, in mM: 132 NaCl, 4 KCl, 1.2 MgCl2, 10 HEPES, 5 glucose, pH=7.2. The heart was then perfused with the same nominally Ca^2+ -free solution containing 150 units/ml Type II collagenase (Worthington) and 0.5 units/ml Type XIV protease (Sigma) for 8 minutes. This perfusate was followed by a Tyrode's solution contianing 0.2 mM CaCl2 (without enzymes) for 5 minutes. The digested ventricles were cut into small pieces and gently shaken until cells were visibly dispersed. The cells were stored at room temperature until use, within 8 hours after isolation.
Microelectrode fabrication:
The suction microelectrode technique described by Giles, W. R. and Shibata, E. F., "Voltage clamp of bull-frog cardiac pacemaker cells: a quantitative analysis of potassium currents", J. Physiol. 368:265-292 (1985) was used to voltage clamp the cells. Microelectrodes were made by using a two stage puller from square bore (1.0 mm o.d.) borosilicate capillary tubing. Pipettes were filled with 0.5 M K gluconate, 25 mM KCl and 5 mM K2 ATP. The electrodes had resistances of 3 to 7 Mohm when filled with this solution. After establishing whole-cell recording mode, negative pressure was maintained on the pipette using a 1 ml gas-tight syringe attached via air tight tubing to the suction port of the microelectrode holder. This minimized dialysis of the cell with the pipette solution.
To record K^+ currents, the cells were bathed in a Ca^2+ -free Tyrode's solution containing […]. […] To record Ca^2+ currents, the cells were bathed in Tyrode's solution containing 1.8 mM Ca^2+ without nisoldipine. The cell chamber was superfused with solutions at a rate of 1-2 ml/minute, while maintaining the temperture at […]. A List EPC-7 clamp amplifier was used to voltage clamp the isolated cells. Series resistance was compensated 40-70%, and current was low-pass filtered at a cut-off frequency of 1 kHz. […] Data was analyzed as % block from control membrane currents.
Nisoldipine was prepared as a 4 mM stock solution in polyethylne glycol 200. […] At the final concentrations used, neither polyethylene glycol 200 nor dimethyl sulfoxide had any effect on any of the measured membrane currents.
Selectivity for block of cardiac K^+ channels, IK1, IKr, and IKs was determined as previously described in guinea pig ventricular myocytes (U.S. Pat. No. 5,428,031).

| Compound | blockade of the other cardiac K+ channels (in words) |
| --- | --- |
| COc1ccc(-n2nc(Sc3ccc(Cl)cc3)c(C)c(C#N)c2=O)cc1 [C, 6-(4-Chlorophenylthio)-2-(4-methoxyphenyl)-5-methyl-3-oxo-2,3-dihydropyridazine-4-carbonitrile] | minimal or absent |
| CC1CCC(C(C)C)C(P(=O)(c2ccccc2)c2ccccc2)C1 (stereo not shown) [A, (2-Isopropyl-5-methylcyclohexyl)diphenylphosphine oxide] | minimal or absent |
| Cc1cc(C)c(CP(=O)(c2ccccc2)c2ccccc2)c(-c2ccc(F)c(C)c2)c1 [B, 2-(Diphenylphosphinylmethyl)-4'-fluoro-3,5,3'-trimethyl-biphenyl] | minimal or absent |
| COc1ccc(-n2nc(Sc3ccc(C)cc3)c(C)c(C#N)c2=O)cc1 [D] | minimal or absent |
